Measurements taken from ChEMBL document CHEMBL6092126, “Inhibitors of Rickettsia prowazekii methionine aminopeptidase 1 identified from the Pandemic Response Box” (Bioorg Med Chem Lett, 2024).

Key:
[1] = Inhibition of Rickettsia prowazekii methionine aminopeptidase 1 using methionine-aminomethylcoumarin as substrate at 10 uM preincubated for 1 hrs followed by substrate addition and measured after 30 mins by fluorescence based plate reader analysis relative to control; conditions: time 1.5 hrs
[2] = Inhibition of Rickettsia prowazekii methionine aminopeptidase 1 using methionine-aminomethylcoumarin as substrate preincubated for 1 hrs followed by substrate addition and measured after 30 mins by fluorescence based plate reader analysis

Structure (SMILES)	inhibition [1] [%]	IC50 [2] [µM]
Cc1ccc(Oc2ccccc2-c2csc(N=C3NCCCN3)n2)c(C)c1 [ABAFUNGIN]	> 60	5.4
COc1ccc(C)cc1NC(=O)c1ccc(S(=O)(=O)N2CCCCC2)cc1	> 60	2.4
O=c1cc(Nc2ccc3ccccc3c2)[nH]c(=O)[nH]1	> 60	1.8
O=C(NCc1ccc(F)cc1)c1c(O)c2ncccc2[nH]c1=O	> 60	1.9
O=[N+]([O-])/C(Br)=C/c1ccc(Br)o1	> 60	2.9
Nc1nc(=O)[nH]cc1F [FLUCYTOSINE]	> 60	6.9
CN(O)C(=O)c1cc2c(CN3CCC[C@H]3C(N)=O)cn(Cc3ccc(F)cc3)c2cn1	> 60	4.2
O=C1c2cccc3cccc(c23)C(=O)N1CC1CO1 (centres undefined)	> 60	4.8
C[C@@H](c1nc(-c2ccc(C#N)cc2)cs1)[C@](O)(Cn1cncn1)c1ccc(F)cc1F [RAVUCONAZOLE]	> 60	5.2
CONC(=N)c1ccc(-c2ccc(-c3ccc(C(=N)NOC)cc3)o2)cc1 [PAFURAMIDINE]	> 60	2.9
O=C(CP(=O)(O)O)NCCc1cccc(Oc2ccccc2)c1	> 60	7
Cc1cc(-c2ccccc2)c(C(=O)C(=O)Nc2ccc(N3CCN(c4ncc(F)cn4)CC3)cc2)n1C [OLOROFIM]	> 60	4.2
O=C(O)c1ccc(-n2nc(-c3ccccc3O)nc2-c2ccccc2O)cc1 [DEFERASIROX]	> 60	2.1
Oc1cccc(C(Nc2nccs2)c2ccc3cccnc3c2O)c1 (centres undefined)	> 60	1.4
Fc1ccc(-n2cc(Cn3c(-c4cccc(F)c4)nc4ccccc43)nn2)cc1	> 60	4.1
O=C(O)c1ccc(-c2ccccc2Cl)o1	–	2.4
O=C(Nc1nnc(-c2ccc(Cl)cc2)o1)c1nc2ccccc2s1	> 60	5.5
COc1cc(Cc2cnc(N)nc2N)cc(OC)c1OC [TRIMETHOPRIM]	> 60	5.1
CN(C)CCCNC(=O)c1ccc(-c2cc(O)c3ncccc3c2)cc1	> 60	0.34
CCCCCCC1c2ccc(O)cc2Oc2cc(O)ccc21	> 60	10
